This is an account of results in patent US20210108199A1, “Treatment for aggressive cancers by targeting C9ORF72” (The Trustees of Columbia University in the City of New York, priority 2017, published 2021).

Holding throughout (assay type): cell-based
Series [1] concerns p53 null U87 cells. As to the kind of experiment: Vacuoles in p53 null U87 clones. To be noted: p53 null U87 clones KO #4 and KO #9. How it is done:
To generate p53 knockout clones, U87 cells (7×10^5) were transfected with 2 μg p53 CRISPR/Cas9 KO plasmid (Santa Cruz Biotech™, sc-416469) using Lipofectamine 2000 (ThermoFisher™). Two days later, cells were treated with Nutlin-3 (10 μM) for 12 days to inhibit proliferation of cells with wild type p53, thereby enriching for p53 knockout cells. Single-cell clones were selected via limiting dilution, and p53 knockout clones were confirmed by western blotting using p53 antibody (FL-393).
C9 then was knocked down with two independent siRNAs in the two U87 p53 null clones. […] See FIG. 33A, which provides phase contrast images (40×) of two clones (KO #4 and KO #9) of p53 null U87 cells generated by CRISPR, treated with control (siCtrl) and C9 (siC9; SEQ ID NO:631) siRNA, and FIG. 33B, a WB showing C9 levels after C9 KD in KO #4 cells.
FIG. 34 is a graph presenting quantitation of data for about 90 cells, indicating the number of vacuoles per cell. Statistical significance was assessed by unpaired t-test: NS P>0.05, *P≤0.05, **P≤0.01, ***P≤0.001 ****P≤0.0001. FIG. 35 is a WB showing PARP1, phospho-ERK and γ-H2AX levels upon C9 KD (siC9; SEQ ID NO:631) in U87 KO #4 cell line.

Series [2] deals with EGF mRNA. As to the kind of experiment: qRT-PCR of EGF mRNA. To be noted: U87 cells. How it is done:
For most RNA experiments, RNA was isolated from cells using the Qiagen™ RNeasy minikit. Complementary DNA was generated using the Qiagen™ Quantitect™ reverse transcription kit with 0.5 μg of input RNA as measured with a NanoDrop spectrophotometer (Thermo Scientific™). Real-time PCR was carried out on an ABI StepOne Plus™ machine using power SYBR Green dye (Thermo Scientific™). Transcript levels were assayed in triplicate and normalized to RPL32 and HPS90 mRNAs. Relative changes in cDNA levels were calculated using the comparative Ct method (ΔΔCT method). All RT-qPCR primers were designed with Primer3Plus™ or retrieved from Primerbank™. Primer sequences are listed here, including in Table 3. All primers were purchased from Life Technologies™. H. Generation of p53 Knock Out U87 Cell Lines by CRISPR
How C9 levels affect EGF signaling was investigated. […] Furthermore, after 48 and 72 hours, the reduction of EGF mRNA levels was about 97%. See FIG. 39, which presents data from qRT-PCR analysis, showing mRNA levels of C9ORF72 and EGF in U87 cells treated with control or C9 siRNA for 24, 48 and 72 hours (represented as fold change). Statistical significance was assessed by an unpaired t-test: NS P>0.05, *P≤0.05, **P≤0.01, ***P≤0.001 ****P 0.0001.

The test system of series [3] is U87 cells. The series can be described thus: ptfLC3 fluorescent autophagy marker imaging. To be noted: U87 cells transfected with ptfLC3. The protocol: Cells were plated on coverslips in 60-mm culture dishes, and after 48 hours washed twice with PBS followed by incubation with 4% paraformaldehyde (Sigma™) for 20 minutes. Cells then were washed three times with PBS, incubated with PBS/0.5% Triton™ X-100 for 1½ minutes, washed once with PBS and then blocked with 0.5% bovine serum albumin (Sigma™) in PBS for 30 minutes at room temperature before treatment with 100 μL of the diluted primary antibodies (1:1000) for 1 hour at room temperature. The coverslips were then washed three times with PBS and stained by incubation with 100 μL of diluted (1:100) secondary antibody (1:100). The coverslips were then washed three times with PBS and mounted on coverslips with a mounting media containing DAPI stain (Vectashield™, H-1200). Coverslips were imaged at room temperature (about 22° C.) using 40×, 1.3 NA or 63×, 1.4 NA oil immersion lenses on a confocal microscope (LSM 700; Carl Zeiss™).
To this end, C9 was knocked down in U87 cells and employed a fluorescent autophagy marker ptfLC3 to mark autophagosomes and autophagolysosomes. […] The white arrows show vacuoles and the white box represents a zoom in of the cell area with vacuoles. […] The white box here represents a zoom in of the cell area with vacuoles, nuclei stained with DAPI (blue). FIG. 4B is a WB showing LAMP1 levels after control (siCtrl) and C9 KD (siC9; SEQ ID NO:631).

In series [4] the test system is p53. The series can be described thus: Western blot of phospho-p53, p53 and p21. To be noted: U87 cells. The protocol:
For Western blot analysis, cells were lysed with lysis buffer (20 mM sodium phosphate (pH 7.0), 250 mM NaCl, 30 mM sodium pyrophosphate, 0.1% Nonidet™ P-40, 5 mM EDTA, 10 mM NaF, 0.1 mM Na3VO4, and 1 mM PMSF) supplemented with complete protease inhibitors (Roche™) and homogenized by passage through a 28 gauge needle. Protein concentration was measured with a Bio-Rad™ protein assay dye reagent and results were read using a spectrophotometer (BiophotometerPlus™ by Eppendorf™). Protein extracts were resolved by SDS PAGE on gradient (Thermo Fisher™) or 12% gels. Proteins were then electrotransferred at 350 mA for 80 minutes onto a PVDF membrane (Immobilon-P PVDF). Membranes were blocked with PBST with 5% milk and 1% BSA for 30 minutes. Quantitation of blots was performed Image Studio Lite software (LI-COR Biosciences™).
One of the responses to DNA damage is activation of p53 by ATM. Upon DNA damage, ATM activation leads to p53 phosphorylation, which activates p53 as a transcription factor. Since increased DNA damage was observed upon C9 KD, whether p53 is activated in C9 depleted cells was investigated. First, total p53 levels were measured in U87 cells treated with control and two independent siRNAs against C9. […] Then, the levels of phosphorylated (active) p53 (at s15) was measured. Phosphorylation of s15 on p53 was increased in both C9 siRNA samples.
For orientation: Immunoblotting shows a protein as a band on a membrane.

In series [5] the test system is U87 cells. The series can be described thus: Transmission electron microscopy of vacuoles. Particulars: 72 hours of KD. The protocol:
Since endocytic vacuoles (including macropinosomes) are known to have a single membrane U87 cells treated with control and siC9 siRNA (SEQ ID NO:631) were imaged using transmission electron microscopy (TEM). […] FIG. 13 is a set of representative TEM images of U87 cells treated with Control (siCtrl) and C9 (siC9) siRNA after 72 hours of KD. One asterisk indicates representative vacuoles; two asterisks represent membrane folding. The white boxes in FIG. 13A and FIG. 13B show locations for the digital zoomed-in images below, in FIG. 13C and FIG. 13D. The scale bar represents 5 μm.

As to “siC9: siRNA targeting C9 mRNA: UUAAUGAAACAAUAAUCACUC (SEQ ID NO:631; sense) and GUGAUUAUUGUUUCAUUAAUC (SEQ ID NO:632; antisense) (listed as RNA, chemistry not given here)”, the vacuolization entry in series [1] is “no significant increase in vacuolization”. Further, the “reduction of EGF mRNA levels” value in series [2] (24 hours after C9 KD) is on record as 50%. Also, the “reduction of EGF mRNA levels” value in series [2] (48 hours) was “about 97%”. Further, the “reduction of EGF mRNA levels” value in series [2] (72 hours) was “about 97%”. Moreover, in series [3], the “LC3 staining of vacuoles” value was “not stained by LC3” and the fluorescence of autophagolysosomes result is listed as “increase fluorescence”. In series [4], the p21 protein levels result was “increased p21 protein levels”, the “phosphorylation of s15 on p53” value is “increased” and the “total p53 levels” value is on record as “elevates p53 levels”. In addition, the “vacuole appearance in TEM” value in series [5] is “electron-transparent and had a single membrane”.
